Data as given in patent publication US6352715B1, “Transdermal rate-controlled delivery of Huperzine A for treatment of alzheimer's disease” (priority 1998, dated 2002).

Legend:
rat cortex = details: cited from earlier work
[1] = single oral dose of 0.99 mg, six volunteers; cited from earlier work
[2] = pH/solubility profile in buffers; type: physicochemical; details: 37° C., 24 hours
Method: In order to conserve the drug quantity being used, single point solubility determinations were carried out. Six different buffers were prepared in to determine the solubility of Hup A. The pH range chosen to study solubility is in 2 units above and 2 units below the pKa of the drug, i.e., 5 to 9. In addition, pH 7.4 was also selected to determine solubility at the physiological pH. To determine solubility, weighed amounts of Hup A were added to six different glass vials. In each vial, 1 ml of the respective buffer was added. The vials were tightly closed and kept in a shaking water bath maintained at 37° C. for 24 hours. At the end of such period, the supernatant solution was filtered through 0.22 um nylon filters into pre-warmed tubes. An aliquot of the filtrate was further diluted and analyzed by HPLC.
It can be seen that at pH 2 units above the pKa, i.e., at pH 9, the solubility of Hup A is the lowest. At low pH, i.e., at pH 5, the solubility of Hup A is seen to be high. This is expected as at pH 5, the drug predominantly exists as an ionized moiety with a single positive charge. These charged ions are hydrophilic and can be easily solubilized by water. At pH 9, the drug predominantly exists as an neutral moiety which is lipophilic, thus the solubility is low. The log of solubility as a function of solution pH is explained by the Henderson-Hasselback equation: […]

[3] = Partitioning of Hup A into n-octanol from buffers of different pH; type: physicochemical; details: 48 hrs
Method: The buffers used to prepare solutions of Hup A for the partitioning study were the same as those used in the solubility studies, i.e., isotonic phosphate buffers with pH 5, 6, 7, 7.4, 8 and 9. Initially, 100 ml of n-octanol was mixed with 100 ml of phosphate buffers and placed in shaking water bath at 37° C. for 24 hours to saturate the n-octanol with buffer prior to study. Then the n-octanol was separated from the buffer using a separating funnel.
Solutions of Hup A (about 150 ug/ml concentration) were prepared separately in each of the six buffers. Then 1 ml each of each buffers was pipetted to three test tube. To these test tubes, 1 ml of the n-octanol was added. Controls were set up consisting only of buffer solutions without n-octanol to account for changes in concentration due to evaporation of buffer or degradation of drug if present. The tubes were sealed and placed in a shaking water bath at 37° C. for 48 hrs. Samples of 100 ul each were taken from both the n-octanol layer and the buffer layer and analyzed by HPLC. Partition coefficients were determined from the ratio of concentration of Hup A in n-octanol to that in buffer.
It appears that at high pH, when Hup A exists predominantly as a neutral moiety, the partition coefficient is high. As the pH is reduced the fraction of the unionized moiety decreases and so does the partition coefficient. At pH 5, when Hup A exists predominantly as a ionized moiety the partition coefficient is below 1, indicating high affinity of the drug for the buffer phase.

[4] = In vitro permeation of Hup A through human cadaver skin from donor solutions (Valia-Chien permeation cell); type: in vitro ADME; details: for Permeation arate: receptor pH 7.4; for Permeability × 10^3: values × 10^3
Method: Human cadaver skin is employed as model for studying in vitro transdermal permeation of Hup A. The skin specimens of human cadavers, obtained from Ohio Valley Skin & Tissue Center, are mounted between the two half cells of Valia-Chien Permeation Cell. Donor solutions were prepared in isotonic phosphate buffers of pH 5, 6, 7, 7.4, 8 and 9. Concentration of each solution was about 750 ug/ml. Permeation studies were carried out in triplicate at each pH evaluated. The receptor solution used in each case was isotonic phosphate buffer pH 7.4 to simulate physiological conditions.
As stated above human cadaver skin was used in the permeation studies. The skin, obtained frozen, was first thawed and rinsed with in normal saline. The skin was then blotted to remove excess moisture and cut into 2 cm×2 cm pieces. Each skin piece was sandwiched between two microscope glass slides and the thickness was measured using a micrometer. These skin pieces were then mounted between the two half-cell of Valia-Chien permeation cells, with the stratum corneum facing the donor half-cell. The respective donor and receptor solutions were added (3.3 ml each). Samples of 100 ul each were taken from the receptor compartment at various intervals up to 48 hours and were analyzed by HPLC. The volume of receptor compartment was replaced with fresh isotonic phosphate buffer after each sample. At end of 48 hours, a single aliquot was taken from the donor compartment and analyzed after suitable dilution to evaluate the amount of Hup A lost from the donor in 48 hours.
The rate of Hup A permeation is determined based on the general formula for the determination of the rate of permeation of a drug across a membrane as illustrated by the following equation (1): [formula]
Sink conditions were maintained throughout the permeation study i.e. Cd>>Cr. Permeability can be calculated using solubility of Hup A as the saturation concentration in donor cell (Cd). [formula]
Intrinsic permeability was calculated by correlating the permeability with the thickness of the skin:
Wherein P=intrinsic permeability and h=thickness in cm.
Generally speaking, higher the partitioning of the drug into the skin, higher the permeation will be. The pH-dependent partitioning behavior of Hup A is seen to be reflected in its skin permeation profiles. The intrinsic permeability-pH profiles of Hup A (FIG. 5) is similar to that observed for partition coefficient-pH relationship (FIG. 3). Again, a sigmoidal relationship is observed. Further, the amount lost from the donor solution, which corresponds to the sum of the amount permeated and the amount retained in the skin, was also seen to follow similar relationship (FIG. 6).

[5] = Determination of pKa of Hup A by pH titration; type: physicochemical; details: 5×10^−4 M in water titrated with HCl
Method: A solution of the Hup A was prepared in water to obtain a concentration of 5×10^−4 M solution. Hydrochloric acid solution 0.005M was prepared by dilution of concentrated acid. Similarly, a NaOH solution was prepared by diluting commercially available 1N solution.
For all titration, the procedure used was similar and is described below. The solution to be titrated was taken in a breaker and continually mixed using a magnetic stir bar. A pH electrode was used to measure pH of the solution during the experiments. The pH meter was connected to a computer, which was programmed to automatically obtain pH readings every 10 seconds. […]
First, the HCL solution was standardized by titrating it with standard NaOH solution. This was carried out three times an d end point was determined from the inflection point using the titration profile. […]
The pH titration curve consists of […]: initial gradual decrease in pH as the base is slowly neutralized by the acid; middle region showing slow decrease in pH as excess acid is added to the solution. The pKa of the base is calculated from the initial region. The pH corresponding to midpoint of the initial part of the curve is the approximate pKa of the Hup A. Further, the exact pKa of Hup A was calculated by method described by Albert and Sergeant (1971), which is incorporated herein by reference. […]

[6] = system: rat embryo hippocampus and cerebellum cultured cells; details: cited from earlier work
patients = details: orally 0.2 mg (4 tablets, b.i.d) for 8 weeks; cited from earlier work

C/C=C1\[C@H]2C=C(C)C[C@]1(N)c1ccc(=O)[nH]c1C2 [Hup A, Huperzine A]
permeation through the blood-brain barrier (rat cortex; rat, in vivo): able to permeate through the blood-brain barrier
Ach, norepinephrine and dopamine in rat cortex (rat cortex; systemic or local administration): dose-dependent increase
pharmaco-kinetics evaluation [1]: absorbed rapidly, distributed widely in the body, and eliminated at a moderate rate
Solubility ([2]; pH 5 buffer): 6.225 (0.153) mg/ml
Solubility ([2]; pH 6 buffer): 4.639 (0.001) mg/ml
Solubility ([2]; pH 7 buffer): 2.123 (0.042) mg/ml
Solubility ([2]; pH 7.4 buffer): 1.325 (0.042) mg/ml
Solubility ([2]; pH 8 buffer): 1.201 (0.017) mg/ml
Solubility ([2]; pH 9 buffer): 1.044 (0.018) mg/ml
Partition Coefficient ([3]; n-octanol/buffer pH 6, 37° C.): 1.681 (0.010)
Partition Coefficient ([3]; n-octanol/buffer pH 7, 37° C.): 11.376 (0.415)
Partition Coefficient ([3]; n-octanol/buffer pH 7.4, 37° C.): 18.359 (0.294)
Partition Coefficient ([3]; n-octanol/buffer pH 8, 37° C.): 24.063 (0.515)
Partition Coefficient ([3]; n-octanol/buffer pH 9, 37° C.): 27.463 (0.131)
Permeation arate ([4]; donor pH 5, about 750 ug/ml): 0.776 (0.029) ug/cm^2/hr
Permeability × 10^3 ([4]; donor pH 5): 1.026 (0.038) cm/hr
Permeation arate ([4]; donor pH 6, about 750 ug/ml): 0.213 (0.088) ug/cm^2/hr
Permeability × 10^3 ([4]; donor pH 6): 0.290 (0.119) cm/hr
Permeation arate ([4]; donor pH 7, about 750 ug/ml): 0.633 (0.225) ug/cm^2/hr
Permeability × 10^3 ([4]; donor pH 7): 0.846 (0.300) cm/hr
Permeation arate ([4]; donor pH 7.4, about 750 ug/ml): 0.759 (0.368) ug/cm^2/hr
Permeability × 10^3 ([4]; donor pH 7.4): 1.007 (0.489) cm/hr
Permeability × 10^3 ([4]; donor pH 8): 4.434 (1.7050) cm/hr
Permeation arate ([4]; donor pH 9, about 750 ug/ml): 5.082 (2.162) ug/cm^2/hr
Permeability × 10^3 ([4]; donor pH 9): 6.118 (2.603) cm/hr
pKa [5]: 6.97 (+/−0.06)
death of neuronal cell caused by toxic levels of glutamate [6]: decreases the death of neuronal cell
patients with significant improvement in memory, cognition and behavior (patients): 58%
side effects (patients): without causing any severe side effects
